Data on 19 compounds can be found in patent US9012642B2, “Pyrrolopyridinone compounds and methods for treating HIV” (ViiV Healthcare UK Limited, priority 2011, dated 2015).

For the experiment, the system named is HIV. Briefly: HIV MT4 Assay (antiviral HIV activity in MT-4 cells). Type of experiment: cell-based. How it is done:
Antiviral HIV activity and cytotoxicity values for compounds of the invention from Table 1 were measured in parallel in the HTLV-1 transformed cell line MT-4 based on the method previously described (Hazen et al., 2007, In vitro antiviral activity of the novel, tyrosyl-based human immunodeficiency virus (HIV) type 1 protease inhibitor brecanavir (GW640385) in combination with other antiretrovirals and against a panel of protease inhibitor-resistant HIV (Hazen et al., “In vitro antiviral activity of the novel, tyrosyl-based human immunodeficiency virus (HIV) type 1 protease inhibitor brecanavir (GW640385) in combination with other antiretrovirals and against a panel of protease inhibitor-resistant HIV”, Antimicrob. Agents Chemother. 2007, 51: 3147-3154; and Pauwels et al., “Sensitive and rapid assay on MT-4 cells for the detection of antiviral compounds against the AIDS virus”, (J. of Virological Methods 1987, 16: 171-185).
Luciferase activity was measured 96 hours later by adding a cell titer glo (Promega, Madison, Wis.). Percent inhibition of cell protection data was plotted relative to no compound control. Under the same condition, cytotoxicity of the compounds was determined using cell titer Glo™ (Promega, Madison, Wis.). IC50s were determined from a 10 point dose response curve using 3-4-fold serial dilution for each compound, which spans a concentration range >1000 fold.
These values are plotted against the molar compound concentrations using the standard four parameter logistic equation: y=((Vmax*x^n)/(K^n+x^n))+Y^2
Y^2=minimum y n=slope factor
Vmax=maximum y x=compound concentration [M]

The mark [1] stands for this setting: Human immunodeficiency virus 1, MT4, HTLV-1 transformed cell line MT-4, luciferase activity measured 96 hours later, Table 3, read-out: HIV MT4 Assay IC50.
Setting [2] is: MT4, 96 h, read-out: MT4 (IC50).

Like-named read-outs stand apart in the source and are kept apart here.

As to `COc1ccc(Cn2ccc3c(-c4ccc5c(c4C)CCCO5)c(C(OC(C)(C)C)C(=O)O)n(C)c(=O)c32)cc1` (atropisomer, axis not shown; (M)) [Example 53, (S)(M)-2-(tert-butoxy)-2-(1-(4-methoxybenzyl)-6-methyl-4-(5-methylchroman-6-yl)-7-oxo-6,7-dihydro-1H-pyrrolo[2,3-c]pyridin-5-yl)acetic acid], the IC50 (commonly the point on the concentration scale where inhibition reaches its midpoint) runs as follows: under setting [1], 10 nM; under setting [2], 10 nM.

`COc1ccc(-c2c(C(OC(C)(C)C)C(=O)O)n(C)c(=O)c3c2ccn3Cc2ccc(F)cc2)cc1` (centres unmarked) [Example 36, 2-(tert-butoxy)-2-(1-(4-fluorobenzyl)-4-(4-methoxyphenyl)-6-methyl-7-oxo-6,7-dihydro-1H-pyrrolo[2,3-c]pyridin-5-yl)acetic acid]: the half-maximal inhibitory concentration (IC50) by setting is: under setting [1], 60 nM; under setting [2], 60 nM.

For the compound `Cc1c(-c2c(C(OC(C)(C)C)C(=O)O)n(C)c(=O)c3sc4c(c23)CCCC4)ccc2c1CCCO2` (centres unmarked) [Example 55, tert-Butoxy-[2-methyl-4-(5-methyl-chroman-6-yl)-1-oxo-1,2,5,6,7,8-hexahydro-benzo[4,5]thieno[2,3-c]pyridin-3-yl]-acetic acid], the half-maximal inhibitory concentration (IC50) by setting is: under setting [1], 130 nM; under setting [2], 130 nM.

Consider `Cc1c(-c2c(C(OC(C)(C)C)C(=O)O)n(C)c(=O)c3c2ccn3C)ccc2c1CCCO2` (centres unmarked) [Example 40, 2-(tert-butoxy)-2-(1,6-dimethyl-4-(5-methylchroman-6-yl)-7-oxo-6,7-dihydro-1H-pyrrolo[2,3-c]pyridin-5-yl)acetic acid], for which the half-inhibitory concentration (IC50) is 500 nM under setting [1] and 500 nM under setting [2].

For the compound `Cc1c(-c2c(C(OC(C)(C)C)C(=O)O)n(C)c(=O)c3c2ccn3Cc2cccc(F)c2)ccc2c1CCCO2` (centres unmarked) [Example 45, 2-(tert-butoxy)-2-(1-(3-fluorobenzyl)-6-methyl-4-(5-methylchroman-6-yl)-7-oxo-6,7-dihydro-1H-pyrrolo[2,3-c]pyridin-5-yl)acetic acid], the IC50 reads like this: under setting [1], 80 nM; under setting [2], 80 nM.

Consider `Cc1nc(Cn2ccc3c(-c4ccc(Cl)cc4)c(C(OC(C)(C)C)C(=O)O)n(C)c(=O)c32)cs1` (centres unmarked) [Example 11, 2-(tert-butoxy)-2-(4-(4-chlorophenyl)-6-methyl-1-((2-methylthiazol-4-yl)methyl)-7-oxo-6,7-dihydro-1H-pyrrolo[2,3-c]pyridin-5-yl)acetic acid], for which the IC50 came to 310 nM under setting [1] and 310 nM under setting [2].

On to `COc1ccc(Cn2ncc3c(-c4ccc5c(c4C)CCCO5)c(C(OC(C)(C)C)C(=O)O)n(C)c(=O)c32)cc1` (centres unmarked) [Example 65], for which the IC50 under setting [1] was found to be 410 nM and the IC50 under setting [2] came to 410 nM.

In the case of `Cc1ccc(NC(=O)Cn2ccc3c(-c4ccc(Cl)cc4)c(C(OC(C)(C)C)C(=O)O)n(C)c(=O)c32)c(O)c1` (centres unmarked) [Example 12, 2-(tert-butoxy)-2-(4-(4-chlorophenyl)-1-(2-((2-hydroxy-4-methylphenyl)amino)-2-oxoethyl)-6-methyl-7-oxo-6,7-dihydro-1H-pyrrolo[2,3-c]pyridin-5-yl)acetic acid], the IC50 is, setting by setting: under setting [1], 3250 nM; under setting [2], 3250 nM.

Take `Cn1c(C(OC(C)(C)C)C(=O)O)c(-c2ccc(Cl)cc2)c2ccn(Cc3cc(F)ccc3F)c2c1=O` (centres unmarked) [Example 8, 2-(tert-butoxy)-2-(4-(4-chlorophenyl)-1-(2,5-difluorobenzyl)-6-methyl-7-oxo-6,7-dihydro-1H-pyrrolo[2,3-c]pyridin-5-yl)acetic acid]: the concentration for half-maximal inhibition (IC50) under setting [1] was 130 nM and the IC50 under setting [2] amounted to 130 nM.

In the case of `Cc1ccc(-c2c([C@H](OC(C)(C)C)C(=O)O)n(C)c(=O)c3c2ccn3Cc2ccc(F)cc2)cc1` [Example 24, (S)-2-(tert-butoxy)-2-(1-(4-fluorobenzyl)-6-methyl-7-oxo-4-(p-tolyl)-6,7-dihydro-1H-pyrrolo[2,3-c]pyridin-5-yl)acetic acid], the IC50 was found to be 40 nM under setting [1] and 40 nM under setting [2].

In the case of `Cc1ccc(S(=O)(=O)n2ccc3c(-c4ccc(Cl)cc4)c(C(OC(C)(C)C)C(=O)O)n(C)c(=O)c32)cc1` (centres unmarked) [Example 17, 2-(tert-butoxy)-2-(4-(4-chlorophenyl)-6-methyl-7-oxo-1-tosyl-6,7-dihydro-1H-pyrrolo[2,3-c]pyridin-5-yl)acetic acid], the IC50 by setting is: under setting [1], 1200 nM; under setting [2], 1200 nM.

For the compound `Cc1c(-c2c(C(OC(C)(C)C)C(=O)O)n(C)c(=O)c3c2cnn3Cc2ccc(F)cc2)ccc2c1CCCO2` (centres unmarked) [Example 67, 2-(tert-butoxy)-2-(1-(4-fluorobenzyl)-6-methyl-4-(5-methylchroman-6-yl)-7-oxo-6,7-dihydro-1H-pyrazolo[3,4-c]pyridin-5-yl)acetic acid], the IC50 reads like this: under setting [1], 80 nM; under setting [2], 80 nM.

For the compound `Cn1c(C(OC(C)(C)C)C(=O)O)c(-c2ccc(Cl)cc2)c2ccn(Cc3ccccc3)c2c1=O` (centres unmarked) [Example 1, 2-(1-benzyl-4-(4-chlorophenyl)-6-methyl-7-oxo-6,7-dihydro-1H-pyrrolo[2,3-c]pyridin-5-yl)-2-(tert-butoxy)acetic acid], the half-maximal inhibitory concentration (IC50) under setting [1] turned out to be 220 nM and the 50% inhibitory concentration (IC50) under setting [2] amounted to 220 nM.

Consider `Cc1ccc(-c2c(C(OC(C)(C)C)C(=O)O)n(C)c(=O)c3c2ccn3Cc2ccc(S(C)(=O)=O)cc2)cc1` (centres unmarked) [Example 27, 2-(tert-butoxy)-2-(6-methyl-1-(4-(methylsulfonyl)benzyl)-7-oxo-4-(p-tolyl)-6,7-dihydro-1H-pyrrolo[2,3-c]pyridin-5-yl)acetic acid], for which the IC50 by setting is: under setting [1], 3850 nM; under setting [2], 3850 nM.

`Cc1ccc(-c2c(C(OC(C)(C)C)C(=O)O)n(C)c(=O)c3c2ccn3Cc2ccc(Cl)c(F)c2)cc1` (centres unmarked) [Example 31, 2-(tert-butoxy)-2-(1-(4-chloro-3-fluorobenzyl)-6-methyl-7-oxo-4-(p-tolyl)-6,7-dihydro-1H-pyrrolo[2,3-c]pyridin-5-yl)acetic acid]: the IC50 under setting [1] was found to be 110 nM and the IC50 under setting [2] amounted to 110 nM.

For `Cn1c(C(OC(C)(C)C)C(=O)O)c(-c2ccc(Cl)cc2)c2c(Br)cn(Cc3ccccc3)c2c1=O` (centres unmarked) [Example 14, 2-(1-benzyl-3-bromo-4-(4-chlorophenyl)-6-methyl-7-oxo-6,7-dihydro-1H-pyrrolo[2,3-c]pyridin-5-yl)-2-(tert-butoxy)acetic acid], the IC50 under setting [1] was 750 nM and the IC50 under setting [2] came to 750 nM.

As for `Cc1c(-c2c(C(OC(C)(C)C)C(=O)O)n(C)c(=O)c3c2ccn3Cc2ccc(Cl)cc2)ccc2c1CCCO2` (centres unmarked) [Example 44, 2-(tert-butoxy)-2-(1-(4-chlorobenzyl)-6-methyl-4-(5-methylchroman-6-yl)-7-oxo-6,7-dihydro-1H-pyrrolo[2,3-c]pyridin-5-yl)acetic acid], the IC50 is, setting by setting: under setting [1], 50 nM; under setting [2], 50 nM.

For the compound `Cc1ccc(-c2c(C(OC(C)(C)C)C(=O)O)n(C)c(=O)c3c2ccn3Cc2ccc3nonc3c2)cc1` (centres unmarked) [Example 20, 2-(1-(benzo[c][1,2,5]oxadiazol-5-ylmethyl)-6-methyl-7-oxo-4-(p-tolyl)-6,7-dihydro-1H-pyrrolo[2,3-c]pyridin-5-yl)-2-(tert-butoxy)acetic acid], the IC50 runs as follows: under setting [1], 160 nM; under setting [2], 160 nM.

On to `Cn1c(C(OC(C)(C)C)C(=O)O)c(-c2ccc(Cl)cc2)c2ccn(Cc3ccc(F)cc3)c2c1=O` (centres unmarked) [Example 2, 2-(tert-butoxy)-2-(4-(4-chlorophenyl)-1-(4-fluorobenzyl)-6-methyl-7-oxo-6,7-dihydro-1H-pyrrolo[2,3-c]pyridin-5-yl)acetic acid], for which the IC50 is 160 nM under setting [1] and 160 nM under setting [2].
